Data from patent US10399931B2, “Octahydroanthracene compound, preparation method and application thereof” (SHANDONG XINHUA PHARMACEUTICAL CO., LTD., priority 2016, dated 2019).
Entries after “also recorded” stand apart in the source; their conditions may differ.

Legend:
[1] = test system: APP/PS1 double transgenic AD model mice; test: Behavioral experiments (new object discrimination, Y-maze, Morris water maze, nesting, social interaction); type: in vivo; details: 14 days or 3 months
Experimental: The drugs were administered three days after the adaptive feeding. Peanut oil was used as the solvent. The drug was intragastric administered once a day for 15 days. On the 6th to 9th day after the administration, the new object identification test was performed. On the 10th day, the Y-maze test was performed. On the 11th to 15th day, the Morris water maze test was performed to determine the improvement of learning and memory. The administration of the drugs was continued during the behavioral experiment until the animals were sacrificed (16th day). The experimental device is a wooden square open field with a size of 50 cm×50 cm×15 cm. […] The mouse was placed back to the objects at equal distance from the two identical objects on the other side of the experimental device, and the time (tA1, tA2) used to explore the two objects within 5 minutes was recorded. After 1 h, A2 was replaced with a new object (B) and the mouse was placed in the test site again, the time (tA1, tB) used to explore the two objects was recorded. After 24 h, the object B was replaced with a new object (C), and the mouse was placed in the test site again, the time (tA1, tC) used to explore the two objects was recorded. […] The preferential index and the discrimination index of the new objects for each group of the experimental mice were calculated separately. […]

[2] = test system: APP/PS1 mice; test: Transmission electron microscopy of hippocampal CA1 neurons and synapses; type: in vivo
[3] = test system: tau protein; test: Tau protein phosphorylation; set-up: species or system mice; details: mouse, in vivo

**Q.** What does the source list for `CC1(C)CCC(C)(C)c2c1cc1c(c2NC(=O)c2ccc(NC(=O)NCCN)cc2)C(C)(C)CCC1(C)C` [OAB-14, 1-(2-amino) ethyl-3-{4-[(1,1,4,4,5,5,8,8-octamethyl-1,2,3,4,5,6,7,8-octahydro-9-anthryl)carbamoyl]phenyl} urea]?
**A.** Learning and memory disorders in new object discrimination, Y-maze, Morris water maze, nesting and social interaction tests ([1]; 50, 100 and 200 mg/kg intragastric, 8-month-old APP/PS1 mice): dose-dependently improve; Behavioral effect of the high-dose group compared with donepezil and blank groups ([1]; high-dose group): significantly stronger than that of the donepezil group and completely restored to the level of the blank control group; also recorded: significantly stronger than the donepezil group and completely recovered to the level of the blank group; Synaptic ultrastructure of the hippocampus (TEM) ([2]; 100 mg/kg group): significantly improved; Synaptic ultrastructure of the hippocampus (TEM) ([2]; 200 mg/kg group): significantly improved; Ultrastructure of hippocampal CA1 neurons (TEM) ([2]; dose-dependent, especially 200 mg/kg group): significantly improved; Tau protein phosphorylation [3]: reducing the tau protein phosphorylation
